The values that follow come from patent US9555038B2, “Heterocycle-substituted tetracyclic compounds and methods of use thereof for the treatment of viral diseases” (Merck Sharp & Dohme Corp., priority 2013, dated 2017).

Each structure is given as a SMILES string. Read-outs that look alike come from different tables or passages of the source.

Assay [1] concerns HCV replicon 1A. Description: Cell-based HCV Replicon Assay A, replicon 1A. The protocol: (§1) To measure cell-based anti-HCV activity of compounds of the present invention, two complimentary assays were employed using various replicons. In the first assay (“Replicon Assay A”), replicon cells were seeded at 2000 cells/well in 384-well 384-well flat bottom tissue culture treated clear bottom plate (Corning 3707) in the presence of the test compound. Various concentrations of test compound, typically in 10 serial dilutions, were added to the assay mixture, with the starting concentration ranging from 333.3 nM to […]. The final concentration of DMSO was 0.5%. Fetal bovine serum was 5%, in the assay media. Cells were harvested on day 3 by removing media and washing the cells with a suitable wash buffer. The cells are lysed with the addition of 1× Qiagen lysis buffer (Cat #1062731). The replicon RNA level was measured using real time PCR (TaqMan® EZ RT-PCR, Applied Biosystems 403028) with the following primers and probes: […]
(§2) Cyclophilin RNA was used as endogenous control and was amplified in the same reaction as NS5B (multiplex PCR). The real-time RT-PCR reactions were run on ABI PRISM 7900HT Sequence Detection System using the following program: 50° C. for 2 minutes, 60° C. for 30 minutes, 95° C. for 5 minutes, 40 cycles of 94° C. for 20 sec, 55° C. for 1 minutes.
(§3) The amount of HCV replicon RNA per cell is quantified using a linear regression curve for a known nanogram (ng) amount of HCV replicon total RNA. This is established by plotting the Cycle Threshold values (Ct) from the Neo probe and primer set versus the log (ng) for each HCV replicon total RNA standard. The amount of HCV RNA for each replicon sample is calculated by taking the sample's Ct value, minus the line intercept, divided by the slope of the line. Similarly, the amount of Cyclophilin mRNA per cell is also quantified using a linear regression curve for a known nanogram (ng) amount of HCV replicon total RNA. Again, this is established by plotting the Cycle Threshold values (Ct) from the Cyclophilin probe and primer set versus the log (ng) for each HCV replicon total RNA standard.
(§4) Data was obtained for various compounds of the present invention using the methods described in the Example above, and is presented in the table immediately below. Data for replicons 1A, 1AY93H and 2B were obtained using Replicon Assay A and data for replicons 1AQ30D and 1B were obtained using Replicon Assay B.
In general terms: Replicon systems follow genome replication, usually without infectious particles.

Assay [2] deals with HCV replicon 2B. Description: Cell-based HCV Replicon Assay A, replicon 2B. On the procedure:
as §1, §2, §3, §4

The test system of assay [3] is HCV replicon 1AY93H. Description: Cell-based HCV Replicon Assay A, replicon 1AY93H. On the procedure: as §1, §2, §3, §4
Setting [4] is: Hepatitis C virus, read-out: 2B IC50 (nM), replicon 2B.
Where [5] appears, read: Hepatitis C virus, read-out: 1A Y93H IC50 (nM), replicon 1AY93H.
Where [6] appears, read: read-out: 1A Y93H IC50, replicon 1AY93H.

By IC50 is commonly meant the concentration that gives 50% inhibition. As for `COC(=O)N[C@H](C(=O)C1CCC[C@H]1c1ncc(-c2ccc3c(c2)cc2n3C(c3cnc(CC(C)C)s3)Oc3cc(-c4cnc([C@@H]5CCCN5C(=O)[C@@H](NC(=O)OC)C(C)C)[nH]4)cc(F)c3-2)[nH]1)C(C)C` (mixture of isomers) [Compound 403], the IC50 is 0.0064 nM in assay [1] (Hepatitis C virus), 0.142 nM in assay [2] (setting [4]) and 0.016 nM in assay [3] (setting [5]).

For `CCN(CC)c1ncc(C2Oc3cc(-c4cnc([C@@H]5CCCN5C(=O)[C@@H](NC(=O)OC)C(C)C)[nH]4)cc(F)c3-c3cc4cc(-c5cnc([C@@H]6CCCN6C(=O)[C@@H](NC(=O)OC)C(C)C)[nH]5)ccc4n32)s1` (mixture of isomers) [Compound 404], the half-maximal inhibitory concentration (IC50) in assay [1] (Hepatitis C virus) turned out to be 0.012 nM; in assay [2] (setting [4]), 0.206 nM; in assay [3] (setting [5]), 0.0386 nM.

On to `COC(=O)N[C@H](C(=O)N1CCC[C@H]1c1ncc(-c2cc(F)c3c(c2)OC(c2cn4ccnc4s2)n2c-3cc3cc(-c4cnc([C@@H]5CCCN5C(=O)[C@@H](NC(=O)OC)C(C)C)[nH]4)ccc32)[nH]1)C(C)C` (mixture of isomers) [Compound 417], for which the IC50 in assay [1] (Hepatitis C virus) came to 0.0031 nM; in assay [2] (setting [4]) it was 0.453 nM; in assay [3] (setting [5]) it was 0.996 nM.

Regarding `COC(=O)N[C@H](C(=O)N1CCC[C@H]1c1ncc(-c2cc(F)c3c(c2)OC(c2cnc(-c4cnn(C)c4)s2)n2c-3cc3cc(-c4cnc([C@@H]5CCCN5C(=O)[C@@H](NC(=O)OC)C(C)C)[nH]4)ccc32)[nH]1)C(C)C` (mixture of isomers) [Compound 425], the IC50 in assay [1] (Hepatitis C virus) worked out at 0.0069 nM; in assay [2] (setting [4]), 1.78 nM; in assay [3] (setting [5]) it was 0.534 nM.

Consider `COC(=O)N[C@H](C(=O)N1CCC[C@H]1c1ncc(-c2cc(F)c3c(c2)OC(c2ncc(C4CC4)s2)n2c-3cc3cc(-c4cnc([C@@H]5CCCN5C(=O)[C@@H](NC(=O)OC)C(C)C)[nH]4)ccc32)[nH]1)C(C)C` (single isomer, unassigned) [Compound 7], for which the IC50 came out at 0.0014 nM in assay [1] (Hepatitis C virus); 2.14 nM in assay [2] (read-out: 2B IC50, replicon 2B); 4.23 nM in assay [3] (setting [6]).

With `COC(=O)N[C@H](C(=O)N1CCC[C@H]1c1ncc(-c2cc(F)c3c(c2)OC(c2ncc(C4CC4)s2)n2c-3cc3cc(-c4cnc([C@@H]5CCCN5C(=O)[C@@H](NC(=O)OC)C(C)C)[nH]4)ccc32)[nH]1)C(C)C` (single isomer, unassigned) [Compound 8], the IC50 in assay [1] is 0.0017 nM; in assay [2] (read-out: 2B IC50, replicon 2B), 0.14 nM; in assay [3] (setting [6]), 0.15 nM.

For the molecule `COC(=O)N[C@H](C(=O)N1CCC[C@H]1c1ncc(-c2cc(F)c3c(c2)OC(c2cnc(C4CC4)s2)n2c-3cc3cc(-c4cnc([C@@H]5CCCN5C(=O)[C@@H](NC(=O)OC)C(C)C)[nH]4)ccc32)[nH]1)C(C)C` (single isomer, unassigned) [Compound 9], the IC50 in assay [1] (Hepatitis C virus) turned out to be 0.0016 nM; in assay [2] (read-out: 2B IC50, replicon 2B), 1.56 nM; in assay [3] (setting [6]), 0.86 nM.

Regarding `COC(=O)N[C@H](C(=O)N1CCC[C@H]1c1ncc(-c2cc(F)c3c(c2)OC(c2cnc(OC)s2)n2c-3cc3cc(-c4cnc([C@@H]5CCCN5C(=O)[C@@H](NC(=O)OC)C(C)C)[nH]4)ccc32)[nH]1)C(C)C` (single isomer, unassigned) [Compound 13], the 50% inhibitory concentration (IC50) in assay [1] (Hepatitis C virus) was found to be 0.0011 nM; in assay [2] (read-out: 2B IC50, replicon 2B), 0.446 nM; in assay [3] (setting [6]), 0.621 nM.

For `COC(=O)NC(C(=O)N1CCC[C@H]1c1ncc(-c2ccc3c(c2)cc2n3C(c3cnc(C)s3)Oc3cc(-c4cnc([C@@H]5CCCN5C(=O)[C@@H](NC(=O)OC)C(C)C)[nH]4)cc(F)c3-2)[nH]1)C1C[C@@H](C)O[C@@H](C)C1` (single isomer, unassigned) [Compound 29], the 50% inhibitory concentration (IC50) in assay [1] (Hepatitis C virus) stood at 0.002 nM; in assay [2] (read-out: 2B IC50, replicon 2B) it was 0.192 nM; in assay [3] (setting [6]), 1.09 nM.

On to `COC(=O)N[C@H](C(=O)N1CCC[C@H]1c1ncc(-c2cc(F)c3c(c2)OC(c2cnc(-c4ccc(F)cc4)s2)n2c-3cc3cc(-c4cnc([C@@H]5CCCN5C(=O)[C@@H](NC(=O)OC)C(C)C)[nH]4)ccc32)[nH]1)C(C)C` (single isomer, unassigned) [Compound 32], for which the concentration for half-maximal inhibition (IC50) in assay [1] is 0.0012 nM; in assay [2] (read-out: 2B IC50, replicon 2B), 0.231 nM; in assay [3] (setting [6]) it was 0.344 nM.

As to `CCc1ncc(C2Oc3cc(-c4cnc([C@@H]5CCCN5C(=O)[C@@H](NC(=O)OC)C(C)C)[nH]4)cc(F)c3-c3cc4cc(-c5cnc([C@@H]6CCCN6C(=O)C(NC(=O)OC)C6C[C@@H](C)O[C@@H](C)C6)[nH]5)ccc4n32)s1` (single isomer, unassigned) [Compound 35], the IC50 in assay [1] (Hepatitis C virus) came to 0.0026 nM; in assay [2] (read-out: 2B IC50, replicon 2B) it was 0.125 nM; in assay [3] (setting [6]), 0.161 nM.

Regarding `CCc1ncc(C2Oc3cc(-c4cnc([C@@H]5CCCN5C(=O)[C@@H](NC(=O)OC)C(C)C)[nH]4)cc(F)c3-c3cc4cc(-c5cnc([C@@H]6CCCN6C(=O)C(NC(=O)OC)C6CCOC(C)(C)C6)[nH]5)ccc4n32)s1` (single isomer, unassigned) [Compound 37], the IC50 came out at 0.0022 nM in assay [1] (Hepatitis C virus); 0.226 nM in assay [2] (read-out: 2B IC50, replicon 2B); 0.257 nM in assay [3] (setting [6]).

For `CCc1ncc(C2Oc3cc(-c4cnc([C@@H]5CCCN5C(=O)[C@@H](NC(=O)OC)C(C)C)[nH]4)cc(F)c3-c3cc4cc(-c5cnc([C@@H]6CCCN6C(=O)C(NC(=O)OC)C6CCOC(C)(C)C6)[nH]5)ccc4n32)s1` (single isomer, unassigned) [Compound 38], the IC50 was found to be 0.0029 nM in assay [1] and 0.204 nM in assay [3] (setting [6]).

For the molecule `CCc1ncc(C2Oc3cc(-c4cnc([C@@H]5CCCN5C(=O)[C@@H](NC(=O)OC)C(C)C)[nH]4)cc(F)c3-c3cc4cc(-c5cnc([C@@H]6CCCN6C(=O)C(NC(=O)OC)C6CCOC(C)(C)C6)[nH]5)ccc4n32)s1` (single isomer, unassigned) [Compound 39], the IC50 came to 0.0037 nM in assay [1]; 0.004 nM in assay [2] (read-out: 2B IC50, replicon 2B); 0.0112 nM in assay [3] (setting [6]).

Regarding `COC(=O)N[C@H](C(=O)N1CCC[C@H]1c1ncc(-c2cc(F)c3c(c2)OC(c2cnc(-c4ccc(Cl)cc4)s2)n2c-3cc3cc(-c4cnc([C@@H]5CCCN5C(=O)[C@@H](NC(=O)OC)C(C)C)[nH]4)ccc32)[nH]1)C(C)C` (single isomer, unassigned) [Compound 54], the half-maximal inhibitory concentration (IC50) in assay [1] was found to be 0.0013 nM; in assay [2] (read-out: 2B IC50, replicon 2B), 0.248 nM; in assay [3] (setting [6]), 0.429 nM.

In the case of `COC(=O)NC(C(=O)N1CCC[C@H]1c1ncc(-c2ccc3c(c2)cc2n3C(c3cnc(C(C)C)s3)Oc3cc(-c4cnc([C@@H]5CCCN5C(=O)[C@@H](NC(=O)OC)C(C)C)[nH]4)cc(F)c3-2)[nH]1)C1C[C@@H](C)O[C@@H](C)C1` (single isomer, unassigned) [Compound 56], the IC50 was determined as 0.0011 nM in assay [1] (Hepatitis C virus); 0.104 nM in assay [2] (read-out: 2B IC50, replicon 2B); 0.285 nM in assay [3] (setting [6]).

On to `CCCc1ncc(C2Oc3cc(-c4cnc([C@@H]5CCCN5C(=O)[C@@H](NC(=O)OC)C(C)C)[nH]4)cc(F)c3-c3cc4cc(-c5cnc([C@@H]6CCCN6C(=O)C(NC(=O)OC)C6CCOC(C)(C)C6)[nH]5)ccc4n32)s1` (single isomer, unassigned) [Compound 58], for which the 50% inhibitory concentration (IC50) in assay [1] (Hepatitis C virus) was 0.0026 nM; in assay [2] (read-out: 2B IC50, replicon 2B), 0.003 nM; in assay [3] (setting [6]) it was 0.0086 nM.

In the case of `COC(=O)NC(C(=O)N1CCC[C@H]1c1ncc(-c2ccc3c(c2)cc2n3C(c3cnc(C(C)C)s3)Oc3cc(-c4cnc([C@@H]5CCCN5C(=O)[C@@H](NC(=O)OC)C(C)C)[nH]4)cc(F)c3-2)[nH]1)C1CCOC(C)(C)C1` (single isomer, unassigned) [Compound 62], the concentration for half-maximal inhibition (IC50) in assay [1] was found to be 0.0018 nM; in assay [2] (read-out: 2B IC50, replicon 2B), 0.427 nM; in assay [3] (setting [5]), 0.212 nM.

In the case of `COC(=O)NC(C(=O)N1[C@@H]2C[C@@H]2C[C@H]1c1ncc(-c2ccc3c(c2)cc2n3C(c3cnc(C(C)C)s3)Oc3cc(-c4cnc([C@@H]5CCCN5C(=O)[C@@H](NC(=O)OC)C(C)C)[nH]4)cc(F)c3-2)[nH]1)C1CCOC(C)(C)C1` (single isomer, unassigned) [Compound 69], the figures for the IC50 in assay [1] and in assay [3] (setting [6]) were 0.0424 nM and 2.87 nM, respectively.

As to `CCc1nnc(C2Oc3cc(-c4cnc([C@@H]5CCCN5C(=O)[C@@H](NC(=O)OC)C(C)C)[nH]4)cc(F)c3-c3cc4cc(-c5cnc([C@@H]6CCCN6C(=O)C(NC(=O)OC)C(C)C)[nH]5)ccc4n32)s1` (single isomer, unassigned) [Compound 115], the IC50 in assay [1] was determined as 0.008 nM; in assay [3] (setting [5]), 0.79 nM.

In the case of `COC(=O)N[C@H](C(=O)N1CCC[C@H]1c1ncc(-c2cc(F)c3c(c2)OC(c2cnc(CC(C)(C)C)s2)n2c-3cc3cc(-c4cnc([C@@H]5CCCN5C(=O)[C@@H](NC(=O)OC)C(C)C)[nH]4)ccc32)[nH]1)C(C)C` (single isomer, unassigned) [Compound 523], the IC50 in assay [1] was 0.0012 nM; in assay [3] (replicon 1AY93H, read-out: 1A Y93H IC50), 0.13 nM.
